This is an account of results in patent US5298502A, “Method and composition for photodynamic treatment and detection of tumors” (priority 1991, dated 1994).

In test [1] the test system is DBA/2 Ha mice with SMT-F subcutaneous tumors. As to the kind of experiment: Proto IX content of tissues of tumor-bearing mice fed the agent (Example 6). The format is in vivo. The settings on record: for concentration of Proto IX in tissue, Adrenal / concentration of Proto IX in tissue, Intestine / concentration of Proto IX in tissue, Kidneys / concentration of Proto IX in tissue, Liver / concentration of Proto IX in tissue, Tumor / Proto IX Mean Cps per gram, Intestine: 2000 ppm in feed; for Proto IX Mean Cps per gram, Adrenal / Proto IX Mean Cps per gram, Kidneys / Proto IX Mean Cps per gram, Liver / Proto IX Mean Cps per gram, Tumor / Weight of Tumor as excised: 2000 ppm in feed Days 2-10, sacrificed Day 10 (6j Day 7); for Proto IX Mean Cps per gram, Intestine: undiluted samples (6j Day 7). How it is done:
In this Example the enzyme-inhibiting agents were added to the feed of tumor-bearing mice; for some of the mice, used as a control, no agent was added to the feed. The mice were then sacrificed and their kidneys, intestines, adrenal glands, liver and tumor were removed and analyzed for their content of Proto IX. The following enzyme-inhibiting agents were employed: [drawing 10]
More particularly, the mice were DBA/2 Ha mice which had been injected with SMT-F subcutaneous tumors on Day 0 in the right shoulder. The mice, individually housed, received untreated Purina Rodent Chow 5001 Mash on Day 1; thereafter on Days 2 through 10 the mice received the same Mash treated with 2000 ppm of the inhibiting agent being tested (or, for the controls, the same untreated Mash). The treatment of the Mash was effected by blending it with a small amount of an acetone solution of the agent to be tested. The mice were then sacrificed on Day 10, except for the mouse treated with the agent designated as 6j; the latter was sacrificed on Day 7. The tissues were refrigerated at 4° C. overnight, then blotted dry, and the fresh weight of each tissue sample was recorded. The tissues were then homogenized in 5 mL, or lo mL in the cases of intestines and liver, of acetone-0.1 N NH4 OH (9:I, v/v). The homogenates were then centrifuged at 1500 g and the supernatants were analyzed on a SPEX FAII2 spectrofluorometer; excitation 400 nm, emission 630 nm wavelengths, the optima for Proto IX. Proto IX accumulation was determined as CPS (fluorescent counts per second emitted) per gram of tissue. The results are tabulated below (results are averages for two mice for each treatment, except for treatments with agents 6f, 6h, 6i and 6j in each of which only one mouse was treated): […]

Another test relates to HeLa cells. The experiment in a line: Proto IX production in HeLa cells, extract of cells alone (Example 7). The class given is cell-based. The note with it: Homo sapiens, 100 uM agent, first formula (background-subtracted), read-out: increase in the amount of Proto IX relative to the control. How it is done:
In a series of experiments along the lines of Examples 1 and 2, cultures of HeLa cells were incubated in the presence of 100 uM of various treating agents, listed below. The percentage given, next to each treating agent, indicates the increase in the amount of Proto IX produced in the presence of that treating agent relative to the amount produced by the control in the same experiment.
As in Examples 1 and 2, the data for this Example 7 were based on measurements of fluorescence (e.g. in counts per second, "cps"). In this Example, however, the measurements were made on an extract of the cells alone (in contrast to Examples 1 and 2 in which the disrupted cells and culture medium together were extracted), the fluorometric medium was the one described in Example 5 (containing 1% Tween-20, 50 mM Tris-HCl, 1 mM EDTA and 1 mM dithioerythritol, pH 8.5), and a cps measurement of the fluorometric medium per se was also made. In calculating the foregoing data for this Example, the following formula was used to calculate the percentage increases: [formula] where Ca is the counts per second for the sample resulting from treatment with the agent, Cc is the counts per second for the control sample, and Cm is the counts per second for the fluorometric medium per se (i.e. the background fluoroescence). On reviewing the data it was observed that Cc -Cm for this set of experiments was […] compared to Cm; for instance, individual measured values were 49025 and 52069 for Cc and 4295 for Cm. […] Accordingly, the data were recalculated using the formula: [formula] with the following results: 6a 336%; 5b 148%; 6c 154%; 6d 510%; 6e 320%; 6f 280%; 6g 329%; 6h 178%; 6i 171%; 6j 185%; 7a 118%; 7b 142%; 7c 103%; 7d 128%; 7e 173%; 7f 118%; 7q 155%; 7h 118%.

As to `CC(C)Oc1cc(-n2c(=O)n3n(c2=O)CCCC3)c(F)cc1Cl` [Agent 6h], in test [1], the “concentration of Proto IX in tissue, Adrenal” value (“concentration … Adrenal” below) was 21 ug of Proto IX per gram of tis; the “concentration of Proto IX in tissue, Intestine” value (“concentration … Intestine” for short) is recorded as 5 ug of Proto IX per gram of tis; the “concentration of Proto IX in tissue, Kidneys” value (“concentration … Kidneys” below) is recorded as 5 ug of Proto IX per gram of tis; the “concentration of Proto IX in tissue, Liver” value (“concentration … Liver” for short) is given as 8 ug of Proto IX per gram of tis. Moreover, in test [1], the “concentration of Proto IX in tissue, Tumor” value (“concentration … Tumor” below) was 3 ug of Proto IX per gram of tis; the “Proto IX Mean Cps per gram, Adrenal” value was 2259 Cps per gram × 10^3; the “Proto IX Mean Cps per gram, Kidneys” value amounted to 585 Cps per gram × 10^3; the “Proto IX Mean Cps per gram, Liver” value came to 914 Cps per gram × 10^3. Besides, in test [1], the “Proto IX Mean Cps per gram, Tumor” value turned out to be 298 Cps per gram × 10^3; the “Weight of Tumor as excised” value came out at 192 mg; the “Proto IX Mean Cps per gram, Intestine” value is 584 Cps per gram × 10^3. Moreover, the activation at 100 µM in the test on HeLa cells came to 431%.
In the case of `C#CCN1C(=O)COc2cc(F)c(-n3nc4c(c3Cl)CCCC4)cc21` [Agent 6i], in test [1], the “concentration … Adrenal” value is recorded as 337 ug of Proto IX per gram of tis; the “concentration … Intestine” value was 32 ug of Proto IX per gram of tis; the “concentration … Kidneys” value is 37 ug of Proto IX per gram of tis; the “concentration … Liver” value is 14 ug of Proto IX per gram of tis. For the same compound, in test [1], the “concentration … Tumor” value was 9 ug of Proto IX per gram of tis; the “Proto IX Mean Cps per gram, Adrenal” value was 36940 Cps per gram × 10^3; the “Proto IX Mean Cps per gram, Kidneys” value was 4014 Cps per gram × 10^3; the “Proto IX Mean Cps per gram, Liver” value is given as 1510 Cps per gram × 10^3. In addition, in test [1], the “Proto IX Mean Cps per gram, Tumor” value came out at 932 Cps per gram × 10^3; the “Weight of Tumor as excised” value is on record as 20 mg; the “Proto IX Mean Cps per gram, Intestine” value is listed as 3454 Cps per gram × 10^3. The activation at 100 µM in the test on HeLa cells is 544%.
Turning to `C#CCN1C(=O)COc2cc(F)c(N=c3sc(=S)n4n3CCCC4)cc21` [Agent 6j], in test [1], the “concentration … Adrenal” value is recorded as 4 ug of Proto IX per gram of tis; the “concentration … Intestine” value is 5 ug of Proto IX per gram of tis; the “concentration … Kidneys” value is 3 ug of Proto IX per gram of tis; the “concentration … Liver” value is 5 ug of Proto IX per gram of tis. Moreover, in test [1], the “concentration … Tumor” value is 11 ug of Proto IX per gram of tis; the “Proto IX Mean Cps per gram, Adrenal” value is 491 Cps per gram × 10^3; the “Proto IX Mean Cps per gram, Kidneys” value was determined as 315 Cps per gram × 10^3; the “Proto IX Mean Cps per gram, Liver” value turned out to be 538 Cps per gram × 10^3. Moreover, in test [1], the “Proto IX Mean Cps per gram, Tumor” value is reported as 1251 Cps per gram × 10^3; the “Weight of Tumor as excised” value was found to be 11 mg; the “Proto IX Mean Cps per gram, Intestine” value stood at 572 Cps per gram × 10^3. The activation at 100 µM in the test with HeLa cells came to 469%.
